US9907776B2 (priority 2013, dated 2018)

Columns and labels:
[1] = test system: corneally kindled seizures; experiment: animal or person; format: in vivo, Sprague-Dawley rats; conditions: Rattus norvegicus, po
[2] = test system: PTZ (Pentylenetetrazol) induced clonic seizure; experiment: animal or person; format: in vivo, Rats; SD; conditions: for PTZ test (ip) Protection % (Rats): rat, in vivo
[3] = test system: PTZ (Pentylenetetrazol) induced clonic seizure; parameters: species or system Mouse; ICR; conditions: mouse, in vivo
[4] = test system: hippocampal kindled seizures; experiment: animal or person; format: in vivo, Sprague-Dawley rats; conditions: Rattus norvegicus, ip, read-out: HK (ip) ED50
[5] = read-out: CK(po) Protection % (Rats)

Structure (SMILES): CC(OC(N)=O)C(O)c1ccccc1Cl (racemic) [Example 3, 1-(2-chlorophenyl)-1-hydroxypropyl-2-carbamate]
- responders at 10 mg/kg [1, 5]: 50%
- ED50 ([2]; Rattus norvegicus, ip, read-out: PTZ test (ip) Rats ED50): 81.9 mg/kg

Structure (SMILES): CCC(OC(N)=O)C(O)c1ccccc1Cl (racemic) [Example 8, 1-(2-chlorophenyl)-1-hydroxybutyl-2-carbamate]
- PTZ test (ip) Protection % (Mice) [3]: ^a20.4 (50%)^

Structure (SMILES): CCCCC(OC(N)=O)C(O)c1ccccc1Cl (racemic) [Example 14, 1-(2-chlorophenyl)-1-hydroxyhexyl-2-carbamate]
- PTZ test (ip) Protection % (Mice) [3]: ^a20.4 (16.7%)

Structure (SMILES): CNC(=O)OC(C)C(O)c1ccccc1Cl (racemic) [Example 29, 1-(2-chlorophenyl)-1-hydroxypropyl-2-N-methylcarbamate]
- PTZ test (ip) Protection % (Mice) [3]: ^a20.4 (33.3%)

Structure (SMILES): CCCNC(=O)OC(C)C(O)c1ccccc1Cl (racemic) [Example 30, 1-(2-chlorophenyl)-1-hydroxypropyl-2-N-propylcarbamate]
- PTZ test (ip) Protection % (Mice) [3]: ^a20.4 (33.3%)

Structure (SMILES): CC(C)NC(=O)OC(C)C(O)c1ccccc1Cl (racemic) [Example 31, 1-(2-chlorophenyl)-1-hydroxypropyl-2-N-isopropylcarbamate]
- PTZ test (ip) Protection % (Mice) [3]: ^a20.4 (83.3%)

Structure (SMILES): CC(OC(=O)NC1CC1)C(O)c1ccccc1Cl (racemic) [Example 32, 1-(2-chlorophenyl)-1-hydroxypropyl-2-N-cyclopropylcarbamate]
- PTZ test (ip) Protection % (Mice) [3]: ^a20.4 (16.7%)

Structure (SMILES): C[C@H](OC(N)=O)[C@@H](O)c1ccccc1Cl [Example 1, 1-(2-chlorophenyl)-(S)-1-hydroxypropyl-(S)-2-carbamate]
- ED50 [4]: 17.6 mg/kg
- ED50 ([1]; read-out: CK(po) ED50): 2.8 mg/kg

Structure (SMILES): C[C@@H](OC(N)=O)[C@H](O)c1ccccc1Cl [Example 2, 1-(2-chlorophenyl)-(R)-1-hydroxypropyl-(R)-2-carbamate]
- responders at 20 mg/kg [1, 5]: 16.7%

Structure (SMILES): C[C@@H](OC(N)=O)[C@@H](O)c1ccccc1Cl [Example 4, 1-(2-chlorophenyl)-(S)-1-hydroxypropyl-(R)-2-carbamate]
- responders at 30 mg/kg [1, 5]: 100%

Structure (SMILES): C[C@H](OC(N)=O)[C@H](O)c1ccccc1Cl [Example 5, 1-(2-chlorophenyl)-(R)-1-hydroxypropyl-(S)-2-carbamate]
- responders at 30 mg/kg [1, 5]: 50%

Structure (SMILES): CC[C@H](OC(N)=O)[C@@H](O)c1ccccc1Cl [Example 6, 1-(2-chlorophenyl)-(S)-1-hydroxybutyl-(S)-2-carbamate]
- responders at 10 mg/kg [1, 5]: 33.3%
- PTZ test (ip) Protection % (Rats) [2]: ^b30 (50%)^

Structure (SMILES): CC(C)[C@H](OC(N)=O)[C@@H](O)c1ccccc1Cl [Example 9, 1-(2-chlorophenyl)-(S)-1-hydroxy-3-methyl-butyl-(S)-2-carbamate]
- responders at 30 mg/kg [1, 5]: 16.7%
- PTZ test (ip) Protection % (Mice) [3]: ^a20.4 (33.3%)

Structure (SMILES): CCCC[C@H](OC(N)=O)[C@@H](O)c1ccccc1Cl [Example 12, 1-(2-chlorophenyl)-(S)-1-hydroxyhexyl-(S)-2-carbamate]
- PTZ test (ip) Protection % (Mice) [3]: ^a20.4 (33.3%)

Structure (SMILES): CCCC[C@@H](OC(N)=O)[C@H](O)c1ccccc1Cl [Example 13, 1-(2-chlorophenyl)-(R)-1-hydroxyhexyl-(R)-2-carbamate]
- PTZ test (ip) Protection % (Mice) [3]: ^a20.4 (50%)^

Structure (SMILES): CNC(=O)O[C@@H](C)[C@@H](O)c1ccccc1Cl [Example 15, 1-(2-chlorophenyl)-(S)-1-hydroxypropyl-(S)-2-N-methylcarbamate]
- PTZ test (ip) Protection % (Rats) [2]: ^b25 (33.3%)

Structure (SMILES): CCCNC(=O)O[C@@H](C)[C@@H](O)c1ccccc1Cl [Example 16, 1-(2-chlorophenyl)-(S)-1-hydroxypropyl-(S)-2-N-propylcarbamate]
- PTZ test (ip) Protection % (Rats) [2]: ^b30 (33.3%)

Structure (SMILES): C[C@H](OC(=O)NC1CC1)[C@@H](O)c1ccccc1Cl [Example 18, 1-(2-chlorophenyl)-(S)-1-hydroxypropyl-(R)-2-N-cyclopropylcarbamate]
- PTZ test (ip) Protection % (Rats) [2]: ^b30 (16.7%)

Structure (SMILES): CCCNC(=O)O[C@H](C)[C@H](O)c1ccccc1Cl [Example 23, 1-(2-chlorophenyl)-(R)-1-hydroxypropyl-(R)-2-N-propylcarbamate]
- PTZ test (ip) Protection % (Mice) [3]: ^a20.4 (50%)^

Structure (SMILES): C[C@@H](OC(=O)NC1CC1)[C@H](O)c1ccccc1Cl [Example 25, 1-(2-chlorophenyl)-(R)-1-hydroxypropyl-(R)-2-N-cyclopropylcarbamate]
- PTZ test (ip) Protection % (Mice) [3]: ^a20.4 (66.7%)

Structure (SMILES): C[C@H](OC(N)=O)[C@@H](O)c1ccc(Cl)cc1Cl [Example 36, 1-(2,4-dichlorophenyl)-(S)-1-hydroxypropyl-(S)-2-carbamate]
- responders at 30 mg/kg [1, 5]: 50%
- PTZ test (ip) Protection % (Mice) [3]: ^a20.4 (33.3%)

Structure (SMILES): C[C@H](OC(N)=O)[C@@H](O)c1c(Cl)cccc1Cl [Example 37, 1-(2,6-dichlorophenyl)-(S)-1-hydroxypropyl-(S)-2-carbamate]
- responders at 10 mg/kg [1, 5]: 33.3%
- PTZ test (ip) Protection % (Rats) [2]: ^b30 (50%)^

Structure (SMILES): C[C@H](OC(N)=O)[C@@H](O)c1cccc(Cl)c1Cl [Example 38, 1-(2,3-dichlorophenyl)-(S)-1-hydroxypropyl-(S)-2-carbamate]
- responders at 30 mg/kg [1, 5]: 50%
- PTZ test (ip) Protection % (Mice) [3]: ^a20.4 (50%)^

Structure (SMILES): CC[C@H](OC(N)=O)[C@@H](O)c1ccc(Cl)cc1Cl [Example 39, 1-(2,4-dichlorophenyl)-(S)-1-hydroxybutyl-(S)-2-carbamate]
- responders at 25 mg/kg [1, 5]: 100%

Structure (SMILES): CC[C@H](OC(N)=O)[C@@H](O)c1c(Cl)cccc1Cl [Example 40, 1-(2,6-dichlorophenyl)-(S)-1-hydroxybutyl-(S)-2-carbamate]
- PTZ test (ip) Protection % (Mice) [3]: ^a20.4 (33.3%)

Structure (SMILES): CC(C)[C@H](OC(N)=O)[C@@H](O)c1c(Cl)cccc1Cl [Example 42, 1-(2,6-dichlorophenyl)-(S)-1-hydroxy-3-methyl-butyl-(S)-2-carbamate]
- PTZ test (ip) Protection % (Mice) [3]: ^a20.4 (50%)^

Structure (SMILES): CCCC[C@H](OC(N)=O)[C@@H](O)c1ccc(Cl)cc1Cl [Example 43, 1-(2,4-dichlorophenyl)-(S)-1-hydroxyhexyl-(S)-2-carbamate]
- PTZ test (ip) Protection % (Rats) [2]: ^b25 (33.3%)

Structure (SMILES): CCCC[C@H](OC(N)=O)[C@@H](O)c1c(Cl)cccc1Cl [Example 44, 1-(2,6-dichlorophenyl)-(S)-1-hydroxyhexyl-(S)-2-carbamate]
- PTZ test (ip) Protection % (Mice) [3]: ^a20.4 (33.3%)

Structure (SMILES): C[C@@H](OC(N)=O)[C@H](O)c1ccc(Cl)cc1Cl [Example 45, 1-(2,4-dichlorophenyl)-(R)-1-hydroxypropyl-(R)-2-carbamate]
- PTZ test (ip) Protection % (Mice) [3]: ^a20.4 (16.7%)
- PTZ test (ip) Protection % (Rats) [2]: ^b50 (16.7%)

Structure (SMILES): C[C@@H](OC(N)=O)[C@H](O)c1c(Cl)cccc1Cl [Example 46, 1-(2,6-dichlorophenyl)-(R)-1-hydroxypropyl-(R)-2-carbamate]
- responders at 20 mg/kg [1, 5]: 50%
- PTZ test (ip) Protection % (Mice) [3]: ^a20.4 (50%)^

Structure (SMILES): C[C@H](OC(N)=O)[C@@H](O)c1ccccc1F [Example 63, 1-(2-fluorophenyl)-(S)-1-hydroxypropyl-(S)-2-carbamate]
- responders at 20 mg/kg [1, 5]: 100%
- PTZ test (ip) Protection % (Mice) [3]: ^a20.4 (50%)^

Structure (SMILES): C[C@H](OC(N)=O)[C@@H](O)c1ccccc1I [Example 65, 1-(2-iodophenyl)-(S)-1-hydroxypropyl-(S)-2-carbamate]
- responders at 2.8 mg/kg [1, 5]: 33.3%
- PTZ test (ip) Protection % (Mice) [3]: ^a20.4 (100%)

Structure (SMILES): CC[C@H](OC(N)=O)[C@@H](O)c1ccccc1I [Example 67, 1-(2-iodophenyl)-(S)-1-hydroxybutyl-(S)-2-carbamate]
- responders at 30 mg/kg [1, 5]: 100%
- PTZ test (ip) Protection % (Rats) [2]: ^b30 (33.3%)
